Laboratory results published in patent US8933195B2, “Histone deacetylase inhibitors and synthetic method thereof and use thereof in manufacture of medicaments” (Nanjing Yoko Biomedical R & D Ltd., priority 2011, dated 2015).

Experiments:
[1] = test system: human colon cancer HCT-116; assay: Subcutaneously transplanted tumors in nude mice; format: in vivo, BALB/cA nude mice; design: key to RTV (mean ± SD): RTV = Vt/V0, tumor volume at time t over volume at d0; settings: for TV (mean ± SD) d0 / Weight d0 / RTV (mean ± SD) / TV (mean ± SD) d21: 50 mg/kg qd × 3w iv; for RTV (mean ± SD) / TV (mean ± SD) d21: d21; for Tumor Volume TV (mean ± SD) d 0 / Tumor Volume TV (mean ± SD) d 3 / Tumor Volume TV (mean ± SD) d 7 / Tumor Volume TV (mean ± SD) d 10 / Tumor Volume TV (mean ± SD) d 14 / Tumor Volume TV (mean ± SD) d 17 / Weight (mean ± SD) d 0 / Weight (mean ± SD) d 3 / Weight (mean ± SD) d 7 / Weight (mean ± SD) d 10 / Weight (mean ± SD) d 14 / Weight (mean ± SD) d 17 / Weight (mean ± SD) d 21: 50 mg/kg
Protocol: The solvents are isopropanol and anhydrous ethanol (mixed in the volume ratio of 1:1). The test sample is dissolved with solvents and physiological saline in the ratio of 1:1 for use, and the above solvents and physiological saline are dissolved in the ratio of 1:1 as a negative control.
The number of mice in each group: 12 mice in the negative control group, and 6 mice in the administration group.
The cell strains are inoculated to the right axilla subcutaneous layer of the nude mice, with 5×10^6 per mouse. After formed, the transplanted tumors are passed down two generations in the nude mice and then used.
Tumor tissues in the vigorous growth period are cut into about 1.5 mm^3, and inoculated to the right axilla subcutaneous layer of the nude mice under aseptic conditions. For the subcutaneously transplanted tumors of the nude mice, the diameter of the transplanted tumors is measured by a vernier caliper. The mice are randomly grouped after the tumors grow to 100-200 mm^3. […] The diameter of the transplanted tumors is measured twice per week in the whole experimental process, and meanwhile the weight of the mice is weighed. The calculation formula of tumor volume (TV) is TV=½×a×b^2, where a and b represent length and width, respectively.
The relative tumor volume (RTV) is calculated according to the measured results, with the following calculation formula: RTV=Vt/V0, where V0 is the tumor volume obtained by measurement during administration in different cages (i.e., d0), Vt is the tumor volume obtained by measurement at each time. […] (Wc−WT)Wc×100%, where Wc is the tumor weight of the control group, and WT is the tumor weight of the treatment group.

HDAC7 = target: T1, HDAC7 (Homo sapiens, UniProt Q8WUI4); assay: Measurement of biochemical activities of HDAC (fluorescently-labeled acetylated lysine substrate)
T1 sequence (Q8WUI4 1-952): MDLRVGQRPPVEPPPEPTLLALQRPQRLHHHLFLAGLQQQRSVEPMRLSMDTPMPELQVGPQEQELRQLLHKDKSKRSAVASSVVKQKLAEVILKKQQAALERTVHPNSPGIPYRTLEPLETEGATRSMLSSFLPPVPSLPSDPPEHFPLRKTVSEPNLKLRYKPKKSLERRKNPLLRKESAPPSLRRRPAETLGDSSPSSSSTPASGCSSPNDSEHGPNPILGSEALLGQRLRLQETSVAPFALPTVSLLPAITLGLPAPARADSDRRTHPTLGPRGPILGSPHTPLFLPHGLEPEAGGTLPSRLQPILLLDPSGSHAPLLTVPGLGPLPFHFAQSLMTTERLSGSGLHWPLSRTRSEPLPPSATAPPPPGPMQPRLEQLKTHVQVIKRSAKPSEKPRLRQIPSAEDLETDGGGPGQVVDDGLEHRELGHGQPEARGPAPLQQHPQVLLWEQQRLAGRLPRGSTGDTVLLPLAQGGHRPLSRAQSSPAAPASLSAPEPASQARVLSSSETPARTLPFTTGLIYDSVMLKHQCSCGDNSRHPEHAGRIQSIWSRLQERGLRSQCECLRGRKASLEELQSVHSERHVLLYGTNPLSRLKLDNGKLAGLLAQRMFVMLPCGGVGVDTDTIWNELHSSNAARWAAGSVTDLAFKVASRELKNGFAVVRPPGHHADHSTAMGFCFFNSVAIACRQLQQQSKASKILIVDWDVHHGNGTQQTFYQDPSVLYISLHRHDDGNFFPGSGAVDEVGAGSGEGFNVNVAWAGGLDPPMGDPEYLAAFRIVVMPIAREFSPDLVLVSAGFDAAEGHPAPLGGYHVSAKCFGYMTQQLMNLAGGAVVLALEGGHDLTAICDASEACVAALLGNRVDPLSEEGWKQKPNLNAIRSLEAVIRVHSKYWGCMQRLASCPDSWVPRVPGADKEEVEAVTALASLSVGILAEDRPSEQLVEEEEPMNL
Procedure, shortened: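 For both HDAC isoforms, fluorescent acetyl-lysine substrate ([…] in reaction) incubated with enzyme and compounds for 30 min at 37; developer then added for 15 min at room temperature. Fluorescence read at excitation 360 nm, emission 460 nm.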

Incap = assay: MTT cancer cell growth inhibition; format: cell-based; settings: 72 h

O=C(CCCCCCC(=O)Nc1ccccc1)NO [SAHA, suberoylanilide hydroxamic acid, reference compound] was tested, and the “TV (mean ± SD) d0” value ([1]; Table 1.1) was 116 ± 27 mm^3, the “Weight d0” value ([1]; Table 1.1) was 16.6 g and the “RTV (mean ± SD)” value ([1]; Table 1.1) was 4.87 ± 1.68. The “TV (mean ± SD) d21” value ([1]; Table 1.1) was 566 ± 221 mm^3, the “Tumor Volume TV (mean ± SD) d 0” value ([1]; Table 1.2) was 116 ± 27 mm^3 and the “Tumor Volume TV (mean ± SD) d 3” value ([1]; Table 1.2) was 146 ± 38 mm^3. For the same compound, the “Tumor Volume TV (mean ± SD) d 7” value ([1]; Table 1.2) was 191 ± 25 mm^3, the “Tumor Volume TV (mean ± SD) d 10” value ([1]; Table 1.2) was 283 ± 41 mm^3 and the “Tumor Volume TV (mean ± SD) d 14” value ([1]; Table 1.2) was 326 ± 45 mm^3. The “Tumor Volume TV (mean ± SD) d 17” value ([1]; Table 1.2) was 417 ± 140 mm^3, the “Weight (mean ± SD) d 0” value ([1]; Table 1.3) was 16.6 ± 1.5 g and the “Weight (mean ± SD) d 3” value ([1]; Table 1.3) was 15.9 ± 1.5 g. The “Weight (mean ± SD) d 7” value ([1]; Table 1.3) was 14.9 ± 1.8 g, the “Weight (mean ± SD) d 10” value ([1]; Table 1.3) was 14.6 ± 1.4 g and the “Weight (mean ± SD) d 14” value ([1]; Table 1.3) was 14.1 ± 1.3 g. The “Weight (mean ± SD) d 17” value ([1]; Table 1.3) was 13.6 ± 1.3 g, the “Weight (mean ± SD) d 21” value ([1]; Table 1.3) was 13.3 ± 1.1 g and the “TV (mean ± SD) d0” value ([1]; Table 2.1) was 118 ± 25 mm^3. For the same compound, the “Weight d0” value ([1]; Table 2.1) was 16.9 g, the “RTV (mean ± SD)” value ([1]; Table 2.1) was 4.54 ± 1.72 and the “TV (mean ± SD) d21” value ([1]; Table 2.1) was 536 ± 203 mm^3. The “Tumor Volume TV (mean ± SD) d 0” value ([1]; Table 2.2) was 120 ± 25 mm^3, the “Tumor Volume TV (mean ± SD) d 3” value ([1]; Table 2.2) was 146 ± 36 mm^3 and the “Tumor Volume TV (mean ± SD) d 7” value ([1]; Table 2.2) was 189 ± 20 mm^3. For the same compound, the “Tumor Volume TV (mean ± SD) d 10” value ([1]; Table 2.2) was 263 ± 33 mm^3, the “Tumor Volume TV (mean ± SD) d 14” value ([1]; Table 2.2) was 300 ± 35 mm^3 and the “Tumor Volume TV (mean ± SD) d 17” value ([1]; Table 2.2) was 402 ± 146 mm^3. For the same compound, the “Weight (mean ± SD) d 0” value ([1]; Table 2.3) was 16.8 ± 1.0 g, the “Weight (mean ± SD) d 3” value ([1]; Table 2.3) was 15.7 ± 1.2 g and the “Weight (mean ± SD) d 7” value ([1]; Table 2.3) was 14.9 ± 1.6 g. The “Weight (mean ± SD) d 10” value ([1]; Table 2.3) was 14.6 ± 1.5 g, the “Weight (mean ± SD) d 14” value ([1]; Table 2.3) was 14.2 ± 1.4 g and the “Weight (mean ± SD) d 17” value ([1]; Table 2.3) was 13.8 ± 1.3 g. For the same compound, the “Weight (mean ± SD) d 21” value ([1]; Table 2.3) was 13.4 ± 1.1 g, the “IC50 HDAC7” value (HDAC7) was “no activity” and the GI50 (Incap) was 4.56 µM.
